Source: patent US20220016063A1, “COMPOSITIONS THAT ENHANCE IRON ABSORPTION AND METHODS OF USE THEREOF” (UNIVERSITY OF FLORDIA RESEARCH FOUNDATION, INCORPORATED, priority 2018, published 2022)

Key:
[1] = system: Swiss-Webster mice on an Fe-deficient diet; assay: Iron depletion-repletion study (blood hemoglobin); type: in vivo; settings: males, 6.3 mM FeSO4 in control formulation, daily 200 μL gavage, 14 days
Description: To establish the amount of iron needed to steadily replete a mouse, the concentration was determined theoretically to be 3.15 mM in a 200 μL gavage dose, based on daily food intake and iron requirement of a rodent (35 mg/kg Fe). Two additional concentrations were included in this study: 1.575 mM and 6.3 mM, which are half and double the theoretical concentration, respectively. A control group was given 0 mM Fe gavage on chow diet to obtain normal Hb values. The Fe was dissolved in control formulation (Table 3). Three-week-old male and female Swiss-Webster mice were placed on an Fe-deficient diet in wire-overhang cages for two weeks. After two weeks baseline hemoglobin (Hb) was measured. Daily gavage began in the evening for 14 days. An additional trial included FeSO4 and ferrous fumarate at 6.3 mM and 12.6 mM per iron source, along with a control group with 0 mM Fe gavage on control diet (50 ppm Fe).
Three-week-old male and female Swiss-Webster mice were placed on an Fe-deficient diet for two weeks. After two weeks baseline hemoglobin (Hb) was measured and mice were randomized into groups so that average starting Hb values are similar. They were gavaged every evening after a 1.5 hour fast (just before the “active” phase) with a 200 μL volume containing 6.3 mM FeSO4 in control or 4 AA formulations. […] Hemoglobin was measured every three days to track repletion. […]

[2] = system: duodenal epithelial organ cultures; assay: Ussing chamber 59Fe flux studies; design: species or system Swiss-Webster mice; settings: compared to the other single AAs
Description: Ussing chamber technology was utilized to measure Fe flux in the presence of AA formulations. The Ussing chamber was balanced for at least 30 minutes prior to mounting duodenal mouse tissues. Tissues were bathed bilaterally in 10 mL of control or AA-containing buffers, containing 1.5 mM FeSO4.7H2O (“cold” Fe), and were bubbled with a 95% O2 and 5% CO2 gas mixture. Experiments were performed under conditions in which the voltage was clamped to zero, so that there was no net passive diffusion of ions and no driving force for paracellular flux. Duodenal epithelial organ cultures were mounted and equilibrated for approximately 10 minutes and were paired for mucosal-to-serosal and serosal-to-mucosal flux based on similar conductance values. Blank measurements (500 μL) were collected from the “cold” (non-radioactive) side. 15 μCi of ^59Fe (PerkinElmer, catalog #NEZ037500UC) neutralized with N-methyl-D-glucamine (NMDG) was added to each chamber, on either the mucosal or serosal side, depending upon tissue pairing. At 15-minute intervals, 500 μL samples were collected from the “cold” side for 60 minutes, and 500 μL buffer were added back to maintain a fixed volume. […] Radioactivity in the samples was measured using a PerkinElmer gamma counter, and net Fe flux was calculated as Jnet=Jms−Jsm, where Jms is mucosal to serosal flux (absorption) and Jsm is serosal to mucosal flux (secretion). […]

DMT1 = assay: Ligated duodenal loop studies, DMT1 Western blot of BBMV; design: species or system Swiss-Webster mice; settings: single AA formulation pH 6.5 in duodenal loop, 45 min 37 °C; relative to control (expression set to 1)
Description: Blind loop studies were conducted on 8-10-week-old male Swiss-Webster mice, as they are a commonly used outbred strain. Males were selected for initial screening purposes, but experiments will be repeated in female mice. Mice were sacrificed and duodenal segments (approximately […]) were isolated and flushed with Ringer's buffer. […] After incubation, the luminal liquid was released. […] A standard protocol for isolating BBM protein was performed for Western blot analysis (described below).
Isolation of Brush-Border Membrane Vesicles (BBMV): A light scrape of the duodenal mucosal was placed in 9.9 mL ice-cold lysis buffer with 0.1 mL Halt Protease Inhibitor Cocktail, EDTA-free 100×. Samples were homogenized on ice using an IKA T25 Ultra Turrax device for 2 min. Following homogenization, 500 μL 1 M MgCl2 was added and the sample was rotated at 4° C. for 10 minutes. Samples were then centrifuged at 10,000 rpm for 25 min using a JA-12 rotor in a Beckman-Coulter ultracentrifuge. The supernatant was transferred to new round-bottom tubes and centrifuged again at 19,000 rpm for 40 minutes using a JA-17 rotor. The remaining pellet after the second centrifugation step contained the BBMVs. The pellet was dissolved in 50 μL Ringer's buffer with protease inhibitor at a final concentration of 1×.
Sodium Dodecyl Sulfate-Polyacrylamide Gel Electrophoresis (SDS-PAGE): Protein samples, each containing 30 μg protein, were mixed with 4× Laemmli buffer and 1 M dithiolthreitol (ratio of buffer to DTT was 20:1) and incubated at 37° C. for 30 minutes. 30 μg of protein was then loaded into each lane of 8% polyacrylamide gels. SDS-PAGE was run at 90 V for 30 minutes and increased to 120 V for the duration of the electrophoresis.
Western Blot: Proteins in gels were transferred to PVDF membranes at 60 V for two hours. […] Membranes were then incubated with DMT1 primary antibody (courtesy of François Canonne-Hergaux, French Institute of Health and Medical Research, Bordeaux, France) at a 1:2000 dilution in Odyssey blocking buffer at 4° C. for at least 16 hours. Blots were rinsed with TBST for 15 minutes under fast agitation for a total of three washes. […] Blots were again rinsed with TBST for 15 minutes under fast agitation for a total of three washes. Blots were subsequently imaged and protein band signals were quantified with a Licor Odyssey CLx immunofluorescent instrument. Protein band intensities were then normalized to total protein of each lane stained with Coomassie (Gel Analyzer software) and all data was normalized to respective control lanes on the same blot.

Row | SMILES | relative DMT1 protein expression on the BBM (DMT1) | other results
1 | O.O.O.O.O.O.O.O=S(=O)([O-])[O-].[Fe+2] [FeSO4] |  | blood hemoglobin during repletion [1]: steady increase
2 | NC(=O)CC[C@H](N)C(=O)O [glutamine] |  | net Fe flux with individual AAs from the 4 AA formulation [2]: lowest flux
3 | NCCCC[C@H](N)C(=O)O [lysine] | lowest relative DMT1 protein expression | 
4 | N[C@@H](CO)C(=O)O [serine] | lowest relative DMT1 protein expression | 
5 | C[C@@H](O)[C@H](N)C(=O)O [threonine] | lowest relative DMT1 protein expression | 
6 | N[C@@H](Cc1ccc(O)cc1)C(=O)O [tyrosine] | lowest relative DMT1 protein expression | 
7 | CC(C)[C@H](N)C(=O)O [valine] | lowest relative DMT1 protein expression | 
